Reference: patent US7928140B2, “Benzothiazole PI3 kinase modulators for cancer treatment” (Amgen Inc., priority 2007, dated 2011)

How the values were obtained:
PI3K α = biological target: T1, PI3K α (Homo sapiens, UniProt P42336); assay: In vitro PI3 kinase enzyme assay (alpha), ATP loss, bioluminescence; format: biochemical; settings: read-out: PI3Kα ATP loss IC50;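 further: purified p110α/p85 heterodimer acting on PtdIns(4,5)P2 at room temperature, remaining ATP read by luminescence, inhibition scaled between compound-free wells with and without enzyme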
T1 construct: Full length p110 subunits of PI3K α, β and δ, N-terminally labeled with polyHis tag; polyHis (N); made in house; host or cells: Sf9 insect cells (baculovirus)
T1 sequence (P42336 whole entry, species assumed): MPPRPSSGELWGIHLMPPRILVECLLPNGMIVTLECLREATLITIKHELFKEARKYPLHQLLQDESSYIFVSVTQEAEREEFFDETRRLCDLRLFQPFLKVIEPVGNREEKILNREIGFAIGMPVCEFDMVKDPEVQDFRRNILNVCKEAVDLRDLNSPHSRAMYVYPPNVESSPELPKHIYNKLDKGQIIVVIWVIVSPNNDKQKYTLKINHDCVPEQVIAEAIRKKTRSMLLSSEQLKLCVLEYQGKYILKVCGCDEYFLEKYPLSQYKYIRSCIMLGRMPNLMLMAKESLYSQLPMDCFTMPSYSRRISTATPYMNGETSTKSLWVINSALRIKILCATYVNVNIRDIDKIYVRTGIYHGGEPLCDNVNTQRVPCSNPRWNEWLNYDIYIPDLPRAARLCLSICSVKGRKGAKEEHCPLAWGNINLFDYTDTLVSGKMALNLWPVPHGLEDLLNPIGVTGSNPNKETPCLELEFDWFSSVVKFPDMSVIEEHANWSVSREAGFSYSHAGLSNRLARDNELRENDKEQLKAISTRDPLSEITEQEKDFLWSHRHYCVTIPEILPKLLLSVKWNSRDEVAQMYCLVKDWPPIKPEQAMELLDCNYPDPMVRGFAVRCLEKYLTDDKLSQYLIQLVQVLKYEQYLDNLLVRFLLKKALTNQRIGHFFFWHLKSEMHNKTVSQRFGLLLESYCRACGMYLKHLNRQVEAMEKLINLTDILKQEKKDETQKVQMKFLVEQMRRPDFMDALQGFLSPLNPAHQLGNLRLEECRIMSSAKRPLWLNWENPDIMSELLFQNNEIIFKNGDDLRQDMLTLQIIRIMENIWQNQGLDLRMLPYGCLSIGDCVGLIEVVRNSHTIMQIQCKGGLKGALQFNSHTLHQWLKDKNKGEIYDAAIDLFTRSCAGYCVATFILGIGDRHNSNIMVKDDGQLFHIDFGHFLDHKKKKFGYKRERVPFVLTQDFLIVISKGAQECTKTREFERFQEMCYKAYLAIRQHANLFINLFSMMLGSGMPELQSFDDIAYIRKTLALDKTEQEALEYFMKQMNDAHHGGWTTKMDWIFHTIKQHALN
T1 sequence (P27986 whole entry partner, species assumed): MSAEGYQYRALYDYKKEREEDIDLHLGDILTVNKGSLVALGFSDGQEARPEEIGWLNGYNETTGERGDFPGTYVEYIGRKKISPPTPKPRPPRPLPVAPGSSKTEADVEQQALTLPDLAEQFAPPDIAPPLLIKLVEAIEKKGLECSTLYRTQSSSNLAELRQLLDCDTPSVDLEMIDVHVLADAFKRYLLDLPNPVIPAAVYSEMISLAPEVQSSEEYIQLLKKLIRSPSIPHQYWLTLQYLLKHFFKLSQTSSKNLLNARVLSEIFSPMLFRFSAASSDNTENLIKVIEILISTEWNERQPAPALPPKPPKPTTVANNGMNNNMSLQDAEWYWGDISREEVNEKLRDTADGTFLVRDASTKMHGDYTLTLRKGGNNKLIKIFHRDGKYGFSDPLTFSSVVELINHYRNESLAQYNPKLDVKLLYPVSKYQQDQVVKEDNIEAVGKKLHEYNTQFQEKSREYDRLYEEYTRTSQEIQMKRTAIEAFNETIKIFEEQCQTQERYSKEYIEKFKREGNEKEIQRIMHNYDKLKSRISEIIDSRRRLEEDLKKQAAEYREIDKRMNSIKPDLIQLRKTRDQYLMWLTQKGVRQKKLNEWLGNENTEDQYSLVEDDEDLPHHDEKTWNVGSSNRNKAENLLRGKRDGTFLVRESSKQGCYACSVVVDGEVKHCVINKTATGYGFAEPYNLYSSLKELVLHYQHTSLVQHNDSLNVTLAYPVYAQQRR
Description: Full length p110 subunits of PI3K α, β and δ, N-terminally labeled with polyHis tag, were co-expressed with p85 in baculovirus expression vectors in sf9 insect cells. P110/p85 heterodimers were purified by sequential Ni-NTA, Q-HP, and Superdex-100 chromatography. Purified α, β and δ isozymes were stored at −20° C. in 20 mM Tris, pH 8, 0.2M NaCl, 50% glycerol, 5 mM DTT, 2 mM Na cholate.
PI3K enzyme assays (alpha, beta, delta and gamma) were performed in 25 mL with the above final concentrations of components in white polypropylene plates (Costar catalogue #3355). Phosphatidyl inositol phosphoacceptor, PtdIns(4,5)P2 (eg. P4508) was obtained from Echelon Biosciences. The ATPase activity of the alpha and gamma isozymes was not greatly stimulated by PtdIns(4,5)P2 under these conditions and was therefore omitted from the assay of these isozymes. Test compounds were dissolved in DMSO and diluted with three-fold serial dilutions. The compound in DMSO (1 μL) was added per test well, and the inhibition relative to reactions containing no compound, with and without enzyme was determined. After assay incubation at RT, the reaction was stopped and residual ATP determined by addition of an equal volume of a commercial ATP bioluminescence kit (Perkin Elmer EasyLite) according to the manufacturer's instructions, and detected using an Analyst GT luminometer.

PI3K β = biological target: T2, PI3K β (Homo sapiens, UniProt P42338); assay: In vitro PI3 kinase enzyme assay (beta), ATP loss, bioluminescence; format: biochemical; settings: read-out: PI3Kβ ATP loss IC50;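 further: purified p110β/p85 heterodimer with PtdIns(4,5)P2 as acceptor, incubated at room temperature, leftover ATP read by luminescence, inhibition scaled to compound-free wells with and without enzyme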
T2 construct: Full length p110 subunits of PI3K α, β and δ, N-terminally labeled with polyHis tag; polyHis (N); made in house; host or cells: Sf9 insect cells (baculovirus)
T2 sequence (P42338 whole entry): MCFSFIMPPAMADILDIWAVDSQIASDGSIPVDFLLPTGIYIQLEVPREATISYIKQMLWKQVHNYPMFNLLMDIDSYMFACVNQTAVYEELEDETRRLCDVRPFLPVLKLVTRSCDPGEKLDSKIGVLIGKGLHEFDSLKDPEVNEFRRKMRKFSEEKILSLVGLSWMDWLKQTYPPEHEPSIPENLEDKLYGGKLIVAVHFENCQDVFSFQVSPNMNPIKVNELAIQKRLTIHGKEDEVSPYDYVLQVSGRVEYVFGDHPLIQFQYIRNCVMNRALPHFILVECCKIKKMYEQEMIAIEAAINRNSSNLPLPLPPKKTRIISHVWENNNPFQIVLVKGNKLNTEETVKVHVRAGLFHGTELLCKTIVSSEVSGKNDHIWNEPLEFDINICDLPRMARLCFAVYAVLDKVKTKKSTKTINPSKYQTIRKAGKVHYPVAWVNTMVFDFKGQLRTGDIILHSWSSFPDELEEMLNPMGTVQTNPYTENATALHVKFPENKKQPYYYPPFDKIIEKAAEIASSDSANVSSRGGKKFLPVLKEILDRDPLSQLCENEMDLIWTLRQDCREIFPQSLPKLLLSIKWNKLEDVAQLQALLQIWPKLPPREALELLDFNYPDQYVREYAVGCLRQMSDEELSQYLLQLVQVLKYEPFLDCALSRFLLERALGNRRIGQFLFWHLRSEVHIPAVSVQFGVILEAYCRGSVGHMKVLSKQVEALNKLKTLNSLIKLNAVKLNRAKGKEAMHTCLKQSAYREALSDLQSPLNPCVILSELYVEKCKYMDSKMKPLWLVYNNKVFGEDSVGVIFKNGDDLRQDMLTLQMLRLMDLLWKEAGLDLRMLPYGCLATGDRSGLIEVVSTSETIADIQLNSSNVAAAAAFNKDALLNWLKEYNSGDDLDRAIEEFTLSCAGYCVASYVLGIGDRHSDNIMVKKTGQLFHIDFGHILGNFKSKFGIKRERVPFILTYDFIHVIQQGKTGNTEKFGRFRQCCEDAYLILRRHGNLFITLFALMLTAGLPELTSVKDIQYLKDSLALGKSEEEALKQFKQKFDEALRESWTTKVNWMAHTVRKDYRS
T2 sequence (P27986 whole entry partner): as the sequence (P27986 whole entry partner, species assumed) above

[1] = test system: phosphorylation of Serine 473 in Akt, HCT 116 human colon carcinoma cells; assay: Cell-based phospho-AKT Ser473 assay (MSD sandwich immunoassay, IGF-1 stimulated); settings: Homo sapiens, HCT-116, HCT 116 cells; read-out: HCT 116 pAKT IC50
Method in brief: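 Akt Ser473 phosphorylation was measured by MSD electrochemiluminescent sandwich immunoassay in lysates of HCT116 cells (16,000 cells/well). Cells received a compound dilution series for 2 h at 37 °C before a 15 min IGF-1 (100 ng/ml) stimulus, with IC50 calculated from the dose-response.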

SMILES | IC50 (PI3K α) [µM] | IC50 (PI3K β) [µM] | IC50 [1] [µM]
CC(=O)Nc1nc2ccc(-c3cnc(Cl)c(NS(=O)(=O)c4cc(Cl)cc(Cl)c4)c3)cc2s1 [Example 175, N-(6-(6-chloro-5-(3,5-dichlorophenylsulfonamido)pyridin-3-yl)benzo[d]thiazol-2-yl)acetamide] | 0.0032 | 0.0054 | 0.0117
CC(=O)Nc1nc2ccc(-c3cnc(Cl)c(NS(=O)(=O)c4cc(F)cc(F)c4)c3)cc2s1 [Example 176, N-(6-(6-chloro-5-(3,5-difluorophenylsulfonamido)pyridin-3-yl)benzo[d]thiazol-2-yl)acetamide] | 0.0103 | 0.0124 | 0.0182
CCCS(=O)(=O)Nc1cc(-c2ccc3nc(NC(C)=O)sc3c2)cnc1Cl [Example 177, N-(6-(6-chloro-5-(propylsulfonamido)pyridin-3-yl)benzo[d]thiazol-2-yl)acetamide] | 0.0154 | 0.0349 | 0.0363
CCCCS(=O)(=O)Nc1cc(-c2ccc3nc(NC(C)=O)sc3c2)cnc1Cl [Example 178, N-(6-(5-(butylsulfonamido)-6-chloropyridin-3-yl)benzo[d]thiazol-2-yl)acetamide] | 0.0106 | 0.0199 | 0.0156
CC(=O)Nc1nc2ccc(-c3cnc(Cl)c(NS(=O)(=O)C(C)C)c3)cc2s1 [Example 179, N-(6-(6-chloro-5-(propan-2-ylsulfonamido)pyridin-3-yl)benzo[d]thiazol-2-yl)acetamide] | 0.0127 | 0.0307 | 0.0294
CC(=O)Nc1nc2ccc(-c3cnc(Cl)c(NS(=O)(=O)c4ccc(OC(F)F)cc4)c3)cc2s1 [Example 182, N-(6-(6-chloro-5-(4-(difluoromethoxy)phenylsulfonamido)pyridin-3-yl)benzo[d]thiazol-2-yl)acetamide] | 0.006 | 0.006 | 0.0249
CC(=O)Nc1nc2ccc(-c3cnc(Cl)c(NS(=O)(=O)c4cccc(OC(F)F)c4)c3)cc2s1 [Example 184, N-(6-(6-chloro-5-(3-(difluoromethoxy)phenylsulfonamido)pyridin-3-yl)benzo[d]thiazol-2-yl)acetamide] | 0.0072 | 0.0122 | 0.0065
CC(=O)Nc1nc2ccc(-c3cnc(Cl)c(NS(=O)(=O)c4cccs4)c3)cc2s1 [Example 186, N-(6-(6-chloro-5-(thiophene-2-sulfonamido)pyridin-3-yl)benzo[d]thiazol-2-yl)acetamide] | 0.0066 | 0.0143 | 0.0156
CC(=O)Nc1nc2ccc(-c3cnc(Cl)c(NS(=O)(=O)c4ccsc4)c3)cc2s1 [Example 187, N-(6-(6-chloro-5-(thiophene-4-sulfonamido)pyridin-3-yl)benzo[d]thiazol-2-yl)acetamide] | 0.0211 | 0.0421 | 0.0374
CC(=O)Nc1nc2ccc(-c3cnc(Cl)c(NS(=O)(=O)Cc4ccccc4)c3)cc2s1 [Example 188, N-(6-(6-chloro-5-(phenylmethylsulfonamido)pyridin-3-yl)benzo[d]thiazol-2-yl)acetamide] | 0.0069 | 0.0254 | 0.11
CC(=O)Nc1nc2ccc(-c3cnc(Cl)c(NS(=O)(=O)c4ccc(C)cc4)c3)cc2s1 [Example 189, N-(6-(6-chloro-5-(4-methylphenylsulfonamido)pyridin-3-yl)benzo[d]thiazol-2-yl)acetamide] | 0.0064 | 0.0077 | 0.0039
CC(=O)Nc1nc2ccc(-c3cnc(Cl)c(NS(=O)(=O)c4ccc(Cl)s4)c3)cc2s1 [Example 193, N-(6-(6-chloro-5-(2-chlorothiophene-5-sulfonamido)pyridin-3-yl)benzo[d]thiazol-2-yl)acetamide] | 0.0068 | 0.0096 | 0.0168
CC(=O)Nc1nc2ccc(-c3cncc(NS(=O)(=O)c4ccc(C)cc4)c3)cc2s1 [Example 194, N-(6-(5-(4-methylphenylsulfonamido)pyridin-3-yl)benzo[d]thiazol-2-yl)acetamide] | 0.0098 | 0.0255 | 0.0276
CC(=O)Nc1nc2ccc(-c3cncc(NS(=O)(=O)c4ccc(C(F)(F)F)cc4)c3)cc2s1 [Example 196, N-(6-(5-(4-(trifluoromethyl)phenylsulfonamido)pyridin-3-yl)benzo[d]thiazol-2-yl)acetamide] | 0.0067 | 0.0157 | 0.123
CC(=O)Nc1nc2ccc(-c3cncc(NS(=O)(=O)c4cccc(C(F)(F)F)c4)c3)cc2s1 [Example 197, N-(6-(5-(3-(trifluoromethyl)phenylsulfonamido)pyridin-3-yl)benzo[d]thiazol-2-yl)acetamide] | 0.0094 | 0.0119 | 0.0798
CC(=O)Nc1nc2ccc(-c3cncc(NS(=O)(=O)c4ccc(F)cc4)c3)cc2s1 [Example 198, N-(6-(5-(4-fluorophenylsulfonamido)pyridin-3-yl)benzo[d]thiazol-2-yl)acetamide] | 0.0053 | 0.0147 | 0.0404
CC(=O)Nc1nc2ccc(-c3cncc(NS(=O)(=O)c4cccc(F)c4)c3)cc2s1 [Example 199, N-(6-(5-(3-fluorophenylsulfonamido)pyridin-3-yl)benzo[d]thiazol-2-yl)acetamide] | 0.0038 | 0.0103 | 0.075
CC(=O)Nc1nc2ccc(-c3cncc(NS(=O)(=O)c4ccc(Cl)c(Cl)c4)c3)cc2s1 [Example 200, N-(6-(5-(3,4-dichlorophenylsulfonamido)pyridin-3-yl)benzo[d]thiazol-2-yl)acetamide] | 0.0056 | 0.0098 | 0.0357
CC(=O)Nc1nc2ccc(-c3cncc(NS(=O)(=O)c4ccc(C(C)(C)C)cc4)c3)cc2s1 [Example 201, N-(6-(5-(4-tert-butylphenylsulfonamido)pyridin-3-yl)benzo[d]thiazol-2-yl)acetamide] | 0.0065 | 0.0111 | 0.117
CC(=O)Nc1nc2ccc(-c3cncc(NS(=O)(=O)c4ccccc4)c3)cc2s1 [Example 202, N-(6-(5-(phenylsulfonamido)pyridin-3-yl)benzo[d]thiazol-2-yl)acetamide] | 0.0056 | 0.0317 | 0.271
CC(=O)Nc1nc2ccc(-c3ccnc(N(C)S(=O)(=O)c4ccc(C(C)(C)C)cc4)n3)cc2s1 [Example 205, N-(6-(2-(4-tert-butyl-N-methylphenylsulfonamido)pyrimidin-4-yl)benzo[d]thiazol-2-yl)acetamide] | 0.0295 | 0.0872 | 0.0576
CC(=O)Nc1nc2ccc(-c3ccnc(N(C)S(=O)(=O)c4cccs4)n3)cc2s1 [Example 206, N-(6-(2-(N-methylthiophene-2-sulfonamido)pyrimidin-4-yl)benzo[d]thiazol-2-yl)acetamide] | 0.177 | 0.194 | 0.381
CC(=O)Nc1nc2ccc(-c3ccnc(N(C)S(=O)(=O)c4ccc(C)c(C)c4)n3)cc2s1 [Example 210, N-(6-(2-(N,3,4-trimethylphenylsulfonamido)pyrimidin-4-yl)benzo[d]thiazol-2-yl)acetamide] | 0.0147 | 0.0391 | 0.0593
